PubChem BioAssay AID564 (University of Pittsburgh Molecular Library Screening Center, 2006)
The source made the active and inactive calls. The rule behind the calls is not given here.

Target: Dual specificity protein phosphatase 6 (Rattus norvegicus) (UniProt Q64346)
Assay: MKP-3 phosphatase inhibition with catalase present, dose response, biochemical, rat DUSP6, catalase added, probe assessment (AID 564)
Settings: recombinant MKP-3 phosphatase, fluorescence

Sequence of Dual specificity protein phosphatase 6 (Rattus norvegicus) (Q64346 whole entry, looked up): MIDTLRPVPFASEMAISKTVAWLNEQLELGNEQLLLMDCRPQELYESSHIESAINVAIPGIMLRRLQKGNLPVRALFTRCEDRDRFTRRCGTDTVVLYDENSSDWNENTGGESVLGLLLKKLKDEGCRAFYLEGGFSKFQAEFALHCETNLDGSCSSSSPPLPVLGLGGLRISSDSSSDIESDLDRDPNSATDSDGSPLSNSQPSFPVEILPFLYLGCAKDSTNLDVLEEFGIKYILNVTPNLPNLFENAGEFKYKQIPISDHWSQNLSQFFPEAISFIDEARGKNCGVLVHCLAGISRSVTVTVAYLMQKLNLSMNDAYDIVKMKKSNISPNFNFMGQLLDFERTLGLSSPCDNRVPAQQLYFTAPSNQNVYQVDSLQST

IC50: > 50 µM (inactive)
SMILES: O=C1C(C2=C(O)c3ccccc3C2=O)=Nc2ccccc21
